# Data: patent publication US7632859B2, “Iontophoretic delivery of rotigotine for the treatment of Parkinson's disease” (Schwarz Pharma AG, priority 2002, dated 2009)
# Experiments:
# [1] = Solubility of rotigotine in the donor phase; assay type: physicochemical
# Excerpt: To provide for an optimal flux across human stratum corneum it was also necessary to provide for a sufficient concentration of Cl^− ions for the electrode reaction in the donor phase.
# [2] = In vitro iontophoretic flux of rotigotine, three-chamber flow-through diffusion cells; assay type: in vitro ADME, human; conditions: donor pH 5, 500 μA/cm^2, 20° C.
# Experimental: In vitro iontophoretic studies for the administration of rotigotine were carried out with three-chamber flow-through diffusion cells as described by […] al. ([…]. Boddé, “Validation and testing of a new iontophoretic continuous flow through transport cell”, J. Control. Release (1998), 51, […]). On both sides of the acceptor compartment human stratum corneum (SC) was situated. A dialysis membrane having a 5.000 Da cut-off was used as supporting membrane. The volume of the outer chambers was approximately 2 ml, while the volume of the acceptor compartment was 0.54 ml. The two outer chambers contained the silver plate (anode) or silver/silver chloride (cathode) driver […]. The donor phase consisted of rotigotine solution buffered with 5 mM citrate buffer (2.1 mM sodium citrate dihydrate and 2.9 mM citric acid). Using this set-up, a pH in the donor chamber of 5, a current density of 500 μA/cm^2, a pH in the acceptor chamber of 7.4, a temperature of 20° C. and an NaCl concentration in the donor chamber of 70 mmol/l, the flux of rotigotine was measured for different drug concentrations in the donor phase. Using a similar procedure as in Example 1 and a concentration of rotigotine of 1.4 mg/ml (3.98 mM), a pH in the donor chamber of 5, a current density of 500 μA/cm^2, a pH in the acceptor chamber of 7.4 and a temperature of 20° C., but substituting triethylammonium chloride (TEACl) or tributylammonium chloride (TBACl) for NaCl, the influence of the different cations on the flux was evaluated. The concentration of the chloride salts in the donor solution was 70 mmol/l. Using a similar procedure and the same parameters as in Example 2, the influence of reducing the pH in the acceptor chamber from 7.4 to 6.2 was evaluated for different chloride salts. The concentration of the chloride salts in the donor solution was 70 mmol/l.
# [3] = relative to therapeutic concentration range of 1.4 to 10.7 ng/ml; cited from earlier work
# [4] = relative to therapeutic range; cited from earlier work
compound,measurement,setting,value
"CCCN(CCc1cccs1)[C@H]1CCc2c(O)cccc2C1 [Rotigotine, (−)-5,6,7,8-tetrahydro-6-[propyl-[2-(2-thienyl)ethyl]-amino]-1-naphthalenol]",solubility of rotigotine,[1]; effect of addition of chloride salts,reduces the solubility
same,solubility of rotigotine,[1]; effect of increasing pH,decreases when the pH is increased
same,Flux Rotigotine,"[2]; co-ions source NaCl 70 mmol/l, rotigotine 1.4 mg/ml (3.98 mM), acceptor pH 7.4",53.2 nmol/cm^2/h
same,Flux Rotigotine,"[2]; co-ions source NaCl 70 mmol/l, rotigotine 1.4 mg/ml, acceptor pH 6.2",58.9 nmol/cm^2/h
same,Flux Rotigotine,"[2]; co-ions source TBACl 70 mmol/l, rotigotine 1.4 mg/ml (3.98 mM), acceptor pH 7.4",62.0 nmol/cm^2/h
same,Flux Rotigotine,"[2]; co-ions source TBACl 70 mmol/l, rotigotine 1.4 mg/ml, acceptor pH 6.2",76.5 nmol/cm^2/h
same,Flux Rotigotine,"[2]; co-ions source TEACl 70 mmol/l, rotigotine 1.4 mg/ml (3.98 mM), acceptor pH 7.4",72.8 nmol/cm^2/h
same,Flux Rotigotine,"[2]; co-ions source TEACl 70 mmol/l, rotigotine 1.4 mg/ml, acceptor pH 6.2",43.2 nmol/cm^2/h
same,Flux Rotigotine,"[2]; rotigotine donor conc. 0.5 mg/ml (1.4 mM), NaCl 70 mmol/l, acceptor pH 7.4",22.9 nmol/cm^2/h
same,Flux Rotigotine,"[2]; rotigotine donor conc. 1.0 mg/ml (2.8 mM), NaCl 70 mmol/l, acceptor pH 7.4",30.2 nmol/cm^2/h
same,Flux Rotigotine,"[2]; rotigotine donor conc. 1.4 mg/ml (3.98 mM), NaCl 70 mmol/l, acceptor pH 7.4",53.2 nmol/cm^2/h
"CN1CCc2cccc3c2[C@H]1Cc1ccc(O)c(O)c1-3 [R-apomorphine, (R)-5,6,6a,7-tetrahydro-6-methyl-4H-dibenzoquinoline-11,12-diol]",concentrations obtained by iontophoretic administration,[3],lower end of the therapeutic concentration range
CCCN(CCC)CCc1cccc2c1CC(=O)N2 [ropinirole],fluxes obtained by iontophoretic administration,[4],lower end of the therapeutic range
